In brackets after ≈: the same amount, converted by molar mass.
Legend:
[1] = system: Mycolicibacterium smegmatis; assay: Antimycobacterial activity against Mycobacterium smegmatis MC2 155 assessed as inhibition of respiratory ATP synthesis by measuring ATP level at 800 ug/ml measured after 1 hr by luciferase reporter gene assay (reference value: 90.6%); assay type: functional, str. MC2 155; parameters: scale not given: the % may be the effect or the level left
[2] = system: Mycolicibacterium smegmatis; assay: Antimycobacterial activity against Mycobacterium smegmatis MC2 155 assessed as inhibition of respiratory ATP synthesis by measuring ATP level at 800 ug/ml measured after 3 hrs by luciferase reporter gene assay (reference value: 158.3%); assay type: functional, str. MC2 155; parameters: scale not given: the % may be the effect or the level left
[3] = system: Mycolicibacterium smegmatis; assay: Antimycobacterial activity against Mycobacterium smegmatis MC2 155 assessed as inhibition of respiratory ATP synthesis by measuring ATP level at 800 ug/ml measured after 6 hrs by luciferase reporter gene assay (reference value: 152%); assay type: functional, str. MC2 155; parameters: scale not given: the % may be the effect or the level left
[4] = system: Mycolicibacterium smegmatis; assay: Antimycobacterial activity against Mycobacterium smegmatis MC2 155 assessed as inhibition of respiratory ATP synthesis by measuring ATP level at 800 ug/ml measured after 9 hrs by luciferase […] assay (reference value: 212.7%); assay type: functional, str. MC2 155; parameters: scale not given: the % may be the effect or the level left
[5] = Hemolytic activity against New Zealand white rabbit RBC assessed as hemoglobin release measured after 1 hr; assay type: ADME, cell-based, Oryctolagus cuniculus, Erythrocyte; conditions: red blood cells
[6] = system: Mycolicibacterium smegmatis; assay: Antimycobacterial activity against Mycobacterium smegmatis MC2 155 after 24 hrs by broth dilution assay; assay type: functional; conditions: str. MC2 155, 24 h
[7] = Cytotoxicity against human corneal fibroblasts assessed as reduction in ATP level measured after 4 hrs by Celltiter-Glo luminescent assay; assay type: toxicity, Corneal fibroblast
[8] = Cytotoxicity against human corneal fibroblasts assessed as increase in LDH level measured after 4 hrs by Cytotox-one […] assay; assay type: toxicity, Corneal fibroblast
[9] = Drug metabolism in rat liver microsomes at 1 uM preincubated for 5 mins followed by NADPH addition measured up to 30 mins by LC-MS/MS method; assay type: ADME; conditions: read-out: Drug metabolism
[10] = Half life in rat liver microsomes at 1 uM preincubated for 5 mins followed by NADPH addition measured by LC-MS/MS method; assay type: ADME
CYP3A4 = CYP3A4 (Homo sapiens, UniProt P08684); assay: Inhibition of CYP3A4 in human liver microsomes at 10 uM using midazolam as substrate preincubated for 5 min followed by NADPH addition measured after 10 mins by LC-MS/MS method relative to control; assay type: ADME; conditions: probe midazolam
CYP2D6 = CYP2D6 (Homo sapiens, UniProt P10635); assay: Inhibition of CYP2D6 in human liver microsomes at 10 uM using bufuralol as substrate preincubated for 5 min followed by NADPH addition measured after 10 mins by LC-MS/MS method relative to control; assay type: ADME; conditions: probe bufuralol
CYP2C19 = CYP2C19 (Homo sapiens, UniProt P33261); assay: Inhibition of CYP2C19 in human liver microsomes at 10 uM using omeprazole as substrate preincubated for 5 min followed by NADPH addition measured after 10 mins by LC-MS/MS method relative to control; assay type: ADME; conditions: probe omeprazole
[11] = system: Mycolicibacterium smegmatis; assay: Bactericidal activity against Mycobacterium smegmatis MC2 155 assessed as log reduction in bacterial colonies up to 8 times MIC measured after 24 hrs by time-kill assay; assay type: functional, str. MC2 155
Staphylococcus aureus [12] = assay: Antibacterial activity against methicillin-resistant Staphylococcus aureus isolate DM21455; assay type: functional
Staphylococcus aureus [13] = assay: Antibacterial activity against Staphylococcus aureus isolate DM4001; assay type: functional
Mycobacteroides chelonae = assay: Antimycobacterial activity against Mycobacterium chelonae by CLSI method; assay type: functional
[14] = system: Mycolicibacterium smegmatis; assay: Antimycobacterial activity against Mycobacterium smegmatis by CLSI method; assay type: functional
[15] = system: Mycobacterium tuberculosis; assay: Antimycobacterial activity against Mycobacterium tuberculosis H37Ra measured after 7 days by alamar blue assay; assay type: functional; conditions: 168 h
Mycobacterium xenopi = assay: Antimycobacterial activity against Mycobacterium xenopi by CLSI method; assay type: functional
[16] = system: Mycobacterium intracellulare; assay: Antimycobacterial activity against Mycobacterium intracellulare by CLSI method; assay type: functional
[17] = Cytotoxicity against human MRC5 SV2 cells measured after 72 hrs by resazurin based fluorescence assay; assay type: toxicity, cell-based
[18] = Oral bioavailability in Sprague-Dawley rat; assay type: ADME, organism-based; conditions: in vivo

Chain of CYP2D6 (P10635 whole entry): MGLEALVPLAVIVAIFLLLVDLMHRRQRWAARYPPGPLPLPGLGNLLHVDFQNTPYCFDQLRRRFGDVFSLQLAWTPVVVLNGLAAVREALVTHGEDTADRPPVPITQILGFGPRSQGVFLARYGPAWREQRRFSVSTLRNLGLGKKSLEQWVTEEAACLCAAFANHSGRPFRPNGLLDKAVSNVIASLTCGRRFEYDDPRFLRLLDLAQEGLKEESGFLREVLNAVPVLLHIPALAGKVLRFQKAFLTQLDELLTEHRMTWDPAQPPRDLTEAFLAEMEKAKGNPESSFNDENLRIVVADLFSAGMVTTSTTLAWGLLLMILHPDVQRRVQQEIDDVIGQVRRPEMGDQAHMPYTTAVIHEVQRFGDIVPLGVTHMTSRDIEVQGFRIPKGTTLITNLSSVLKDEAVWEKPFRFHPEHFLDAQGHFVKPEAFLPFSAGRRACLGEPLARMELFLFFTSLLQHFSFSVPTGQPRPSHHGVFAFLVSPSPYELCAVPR
Chain of CYP2C19 (P33261 whole entry): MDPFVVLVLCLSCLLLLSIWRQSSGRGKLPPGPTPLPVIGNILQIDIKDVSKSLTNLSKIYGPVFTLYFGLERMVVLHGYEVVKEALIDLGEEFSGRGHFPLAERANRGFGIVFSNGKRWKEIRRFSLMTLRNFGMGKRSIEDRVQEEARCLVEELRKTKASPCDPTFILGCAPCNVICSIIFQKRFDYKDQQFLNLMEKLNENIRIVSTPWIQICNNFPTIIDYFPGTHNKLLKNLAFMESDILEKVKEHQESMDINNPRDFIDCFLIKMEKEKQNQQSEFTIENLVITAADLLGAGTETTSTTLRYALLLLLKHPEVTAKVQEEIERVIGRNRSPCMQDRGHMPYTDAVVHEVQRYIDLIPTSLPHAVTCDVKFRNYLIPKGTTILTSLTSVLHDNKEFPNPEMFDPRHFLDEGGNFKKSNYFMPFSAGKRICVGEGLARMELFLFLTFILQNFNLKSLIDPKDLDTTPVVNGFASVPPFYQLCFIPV
Chain of CYP3A4 (P08684 whole entry): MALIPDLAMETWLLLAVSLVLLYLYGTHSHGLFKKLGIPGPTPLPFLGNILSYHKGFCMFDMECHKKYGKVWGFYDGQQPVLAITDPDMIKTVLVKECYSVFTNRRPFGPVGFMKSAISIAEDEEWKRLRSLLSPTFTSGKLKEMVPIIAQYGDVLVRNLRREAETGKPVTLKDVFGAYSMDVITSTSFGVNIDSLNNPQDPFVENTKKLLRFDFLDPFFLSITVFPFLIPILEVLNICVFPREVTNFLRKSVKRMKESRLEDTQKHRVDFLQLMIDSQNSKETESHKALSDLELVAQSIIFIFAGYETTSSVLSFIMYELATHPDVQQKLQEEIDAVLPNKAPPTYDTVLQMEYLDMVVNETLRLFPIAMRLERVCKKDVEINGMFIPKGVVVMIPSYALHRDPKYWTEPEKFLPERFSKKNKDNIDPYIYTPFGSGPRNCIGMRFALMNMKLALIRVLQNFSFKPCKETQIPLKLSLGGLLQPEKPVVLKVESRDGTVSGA

Work on `C(=NC1CCCCC1)=NC1CCCCC1` [DICYCLOHEXYLCARBODIIMIDE] yielded an Activity [1] of 7%, an Activity [2] of 6.7% and an Activity [3] of 11.1%. The Activity [4] was 13.3%.

With `CCN(CC)CCCCOc1cc2oc3cc(OCCCCN(CC)CC)c(OC)c(CC=C(C)C)c3c(=O)c2c(OCCCCN(CC)CC)c1CC=C(C)C` the HC50 at 1 h [5] was > 252 µM, the MIC90 [6] was > 30 µM and the CC50 at 4 h [7] was 43.7 µM. The CC50 at 4 h [8] was > 150 µM, the metabolised at 0.5 h, 1 µM [9] was 11.6% and the half-life at 1 µM [10] was > 30 min. The inhibition at 10 min, 10 µM (CYP3A4) was 40%, the inhibition at 10 min, 10 µM (CYP2D6) was 30% and the inhibition at 10 min, 10 µM (CYP2C19) was 10%.

For `NNC(=O)c1ccncc1` [ISONIAZID], the MIC90 [6] was 15 µM (≈ 2.06 µg/mL) and the Activity [11] was 1.2.

With `CCCN(CCC)CC(O)COc1cc2oc3cc(OCC(O)CN(CCC)CCC)c(OC)c(CC=C(C)C)c3c(=O)c2c(O)c1CC=C(C)C` (stereo unspecified) the HC50 at 1 h [5] was > 276 µM and the MIC90 [6] was > 30 µM.

For `COC(=O)C(CCCNC(=N)N)NC(=O)COc1cc2oc3cc(OCC(=O)NC(CCCNC(=N)N)C(=O)OC)c(OC)c(CC=C(C)C)c3c(=O)c2c(O)c1CC=C(C)C` (stereo unspecified), the HC50 at 1 h [5] was 309 µM, the MIC90 [6] was > 30 µM and the MIC (Staphylococcus aureus [12]) was 2.5 µM (≈ 2.17 µg/mL). For the same compound, the MIC (Staphylococcus aureus [13]) was 3.5 µM (≈ 3.03 µg/mL), the CC50 at 4 h [7] was 13.7 µM and the CC50 at 4 h [8] was 13.4 µM. The metabolised at 0.5 h, 1 µM [9] was 12.6%, the half-life at 1 µM [10] was > 30 min and the inhibition at 10 min, 10 µM (CYP3A4) was 36%. It also gave an inhibition at 10 min, 10 µM (CYP2D6) of 11% and an inhibition at 10 min, 10 µM (CYP2C19) of 1%.

For `COc1c(O)cc2oc3cc(O)c(CC=C(C)C)c(O)c3c(=O)c2c1CC=C(C)C` [MANGOSTIN], the MIC (Mycobacteroides chelonae) was 3.7 µM (≈ 1.52 µg/mL), the MIC [14] was 3.7 µM (≈ 1.52 µg/mL) and the MIC [15] was 6.25 µg/mL (≈ 15.2 µM). For the same compound, the MIC (Mycobacterium xenopi) was 3.7 µM (≈ 1.52 µg/mL), the MIC [16] was 3.7 µM (≈ 1.52 µg/mL) and the CC50 at 72 h [17] was 7.5 µM.

For `COc1c(OCC(O)CNCCN)cc2oc3cc(OCC(O)CNCCN)c(CC=C(C)C)c(O)c3c(=O)c2c1CC=C(C)C` (stereo unspecified), the HC50 at 1 h [5] was 125 µM, the MIC90 [6] was > 30 µM and the MIC (Staphylococcus aureus [12]) was 5 µM (≈ 3.21 µg/mL). For the same compound, the MIC (Staphylococcus aureus [13]) was 10 µM (≈ 6.43 µg/mL).

With `COc1c(OCC(O)CNCCNCCNCCN)cc2oc3cc(OCC(O)CNCCNCCNCCN)c(CC=C(C)C)c(O)c3c(=O)c2c1CC=C(C)C` (stereo unspecified) the HC50 at 1 h [5] was 155 µM, the MIC90 [6] was > 30 µM and the MIC (Staphylococcus aureus [12]) was 15 µM (≈ 12.2 µg/mL). It also gave an MIC (Staphylococcus aureus [13]) of 15 µM (≈ 12.2 µg/mL).

In the case of `CCN(CC)CCOc1cc2oc3cc(OCCN(CC)CC)c(OC)c(CC=C(C)C)c3c(=O)c2c(O)c1CC=C(C)C`, the HC50 at 1 h [5] is reported as > 328 µM, the MIC90 [6] is reported as 3.2 µM (≈ 1.95 µg/mL) and the CC50 at 4 h [7] is reported as 44.1 µM. The CC50 at 4 h [8] was 92.6 µM, the metabolised at 0.5 h, 1 µM [9] was 82.8% and the half-life at 1 µM [10] was 12 min. It also gave an inhibition at 10 min, 10 µM (CYP3A4) of 20%, an inhibition at 10 min, 10 µM (CYP2D6) of 28% and an inhibition at 10 min, 10 µM (CYP2C19) of 16%.

In the case of `CCN(CC)CCCCOc1ccc2c(=O)c3c(O)cc(OCCCCN(CC)CC)cc3oc2c1`, the HC50 at 1 h [5] is reported as > 401 µM and the MIC90 [6] is reported as > 30 µM.

`CO[C@H]1/C=C/O[C@@]2(C)Oc3c(C)c(O)c4c(c3C2=O)C2=NC3(CCN(CC(C)C)CC3)NC2=C(NC(=O)/C(C)=C\C=C\[C@H](C)[C@H](O)[C@@H](C)[C@@H](O)[C@@H](C)[C@H](OC(C)=O)[C@@H]1C)C4=O` [RIFABUTIN] showed a bioavailability [18] of 20%.

With `COC(=O)C(Cc1cnc[nH]1)NC(=O)COc1cc2oc3cc(OCC(=O)NC(Cc4cnc[nH]4)C(=O)OC)c(OC)c(CC=C(C)C)c3c(=O)c2c(O)c1CC=C(C)C` (stereo unspecified) the HC50 at 1 h [5] was > 241 µM and the MIC90 [6] was > 30 µM.

`CCN(CC)CCCCOc1cc2oc3cc(OCCCCN(CC)CC)c(OC)c(CCC(C)C)c3c(=O)c2c(O)c1CCC(C)C` showed an MIC90 [6] of 6.4 µM (≈ 4.28 µg/mL).

For `O=C(CC(=O)C(F)(F)F)c1cccs1`, the Activity [1] was 36.8%, the Activity [2] was 25.8% and the Activity [3] was 17.4%. For the same compound, the Activity [4] was 26.3%.

— ChEMBL document CHEMBL3872220, “Amphiphilic xanthones as a potent chemical entity of anti-mycobacterial agents with membrane-targeting properties” (Eur J Med Chem, 2016)
